The values that follow come from patent US20250179017A1 (GUANGDONG NEWOPP BIOPHARMACEUTICALS CO., LTD., priority 2022, published 2025).

The assay has as its target T1, human EP2 (PTGER2) (Homo sapiens, UniProt P43116).
T1 construct: Cayman Chemical (Human EP2 Reporter Assay Kit)
The assay is described as follows: EP2 antagonist assay (HEK-293 CNG membrane potential cAMP assay / 293T SEAP reporter assay, PGE2-stimulated). The class given is cell-based. To be noted: EP2 antagonist activity; concentration for 50% inhibition of signal compared to DMSO. The text has this:
1. The HEK-293 CNG (Cyclic Nucleotide Gated) cell line expressing a modified CNG channel that leads to cell membrane depolarization in response to elevated intracellular cAMP levels, which can be measured using a fluorescent membrane potential dye, was engineered to express human EP2 (PTGER2) or EP4 (EP4R). The resulting cell line ACTOne™ PTGER2 or ACTOne™ EP4R as well as the fluorescent membrane potential dye were purchased from eEnzyme (Gaithersburg, MD, US) and used in this assay. Briefly, cells were plated at 1.2×10^4 cells/well in 20 μL DMEM supplemented with 2% Fetal Bovine Serum (FBS, VWR International), 1x Penicillin/Streptomycin (GenClone), 0.2 μg/mL puromycin (InvivoGen) and 50 μg/mL G418 (InvivoGen) on a 384 well plate (Greiner). The next day, cells were dye-loaded with 20 μL/well of 1x Dye-loading solution (eENZYME) following the manufacturer's instruction. After 2 hours of incubation at room temperature (RT) in the dark, a pre-read was made to obtain the background signals using CLARIOstar plate reader (BMG LABTECH, Germany) with the following filter settings: excitation=530/20 nm, emission=590/20 nm. Next, a serial dilution of compound (plus a DMSO control) were added to the plate (5 μL/well) and the reaction was incubated at RT for 15 min before adding 5 μL of PGE2 to every well for a final concentration of 5 nM. All wells were duplicated. The plate was then further incubated at RT for 30 min prior to a final read with the same machine settings. Background-subtracted signals were used to calculate IC50 values.
2. Human EP2 and EP4 Reporter Assay Kits were purchased from Cayman Chemical (Ann Arbor, MI, USA). The assay was performed following the provided User Manual. Briefly, a reverse transfection was performed by seeding 6.0×10^4 of 293T cells (ATCC) to each well of the provided Strip Plate coated with a proprietary transfection complex containing DNA constructs for expressing human EP2 or EP4 and a cAMP response element regulated secreted alkaline phosphatase (SEAP) reporter, in 200 μL DMEM supplemented with 2% FBS and incubated for 20-24 hours at 37° C. with 5% CO2. After the incubation, the culture medium was carefully removed, and the cells were replenished with 150 μL pre-warmed serum-free medium. PGE2 and test compounds were prepared together at 4x the desired final concentration, and 50 μL was added to each assigned well with the final concentration of 13 nM and 2 nM PGE2 for EP2 and EP4 assay, respectively. After 6-8 hours of incubation, 10 μL media from each well was transferred to corresponding well of a new plate, which was then sealed and incubated at 65° C. for 30 min. The plate was then cooled down to RT and 50 μL SEAP substrate was added to each well. Luminescence signal was measured using a CLARIOstar plate reader.
The IC50 value was determined as the concentration for 50% inhibition of signal compared to DMSO (A: IC50 […]; B: IC50 between 100 nM and 1,000 nM; C: IC50≥1,000 nM).

A value given as a limit tells only on which side of the number the result lay.

Usually IC50 stands for the point on the concentration scale where inhibition reaches its midpoint.

T1 sequence (P43116 whole entry): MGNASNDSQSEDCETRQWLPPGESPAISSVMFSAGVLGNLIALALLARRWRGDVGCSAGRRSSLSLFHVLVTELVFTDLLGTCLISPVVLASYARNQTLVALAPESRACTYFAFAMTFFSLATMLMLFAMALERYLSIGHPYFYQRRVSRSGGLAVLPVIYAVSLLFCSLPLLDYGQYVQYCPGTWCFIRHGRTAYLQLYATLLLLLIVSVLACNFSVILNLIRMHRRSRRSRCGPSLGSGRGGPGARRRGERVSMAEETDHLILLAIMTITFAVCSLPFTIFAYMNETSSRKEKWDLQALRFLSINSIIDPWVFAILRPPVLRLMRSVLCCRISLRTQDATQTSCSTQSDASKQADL

Compound `O=C(NC1CC2(C1)CC(C(=O)O)C2)c1cc(Br)cc2[nH]cc(Sc3ccc(C(F)(F)F)cc3)c12` (racemic) [Example 112, (+) 6-(6-bromo-3-((4-(trifluoromethyl)phenyl)thio)-1H-indole-4-carboxamido)spiro[3.3]heptane-2-carboxylic acid] came in with an IC50 of 0.1 to 1 µM.

For the compound `O=C(NC1CC2(C1)CC(C(=O)O)C2)c1cc(-c2ccccc2)cc2[nH]cc(Sc3ccc(C(F)(F)F)cc3)c12` (racemic) [Example 113, (±) 6-(6-phenyl-3-((4-(trifluoromethyl)phenyl)thio)-1H-indole-4-carboxamido)spiro[3.3]heptane-2-carboxylic acid], the IC50 is less than 0.1 µM.

`N#Cc1cccc(-c2cc(C(=O)NC3CC4(C3)CC(C(=O)O)C4)c3c(Sc4ccc(C(F)(F)F)cc4)c[nH]c3c2)c1` (racemic) [Example 114, (±) 6-(6-(3-cyanophenyl)-3-((4-(trifluoromethyl)phenyl)thio)-1H-indole-4-carboxamido)spiro[3.3]heptane-2-carboxylic acid] yielded an IC50 of less than 0.1 µM.

The compound `NC(=O)c1cccc(-c2cc(C(=O)NC3CC4(C3)CC(C(=O)O)C4)c3c(Sc4ccc(C(F)(F)F)cc4)c[nH]c3c2)c1` (racemic) [Example 115, (±) 6-(6-(3-carbamoylphenyl)-3-((4-(trifluoromethyl)phenyl)thio)-1H-indole-4-carboxamido)spiro[3.3]heptane-2-carboxylic acid] gave an IC50 of 0.1 to 1 µM.

The compound `CC(c1ccc(C(F)(F)F)cc1)n1ccc2cc(-c3ccccc3)cc(C(=O)NCc3ccc(C(=O)O)cc3)c21` (racemic) [Example 178, (±) 4-((5-phenyl-1-(1-(4-(trifluoromethyl)phenyl)ethyl)-1H-indole-7-carboxamido)methyl)benzoic acid] returned an IC50 of less than 0.1 µM.

As to `CC(NC(=O)c1cc(-c2ccccc2)cc2cnn(Cc3cccc(C(F)(F)F)c3)c12)[C@H]1CC[C@H](C(=O)O)CC1` (mixture of isomers) [Example 222, (±) (1r,4r)-4-1-(5-phenyl-1-(3-(trifluoromethyl)benzyl)-1H-indazole-7-carboxamido)ethyl)cyclohexane-1-carboxylic acid], the IC50 was less than 0.1 µM.

For `C[C@@H](NC(=O)c1cc(-c2ccc(F)cc2)cc2ccn(Cc3ccc(C(F)(F)F)cc3)c12)c1ccc(C(=O)O)cc1` [Example 3, (R)-4-(1-(5-(4-fluorophenyl)-1-(4-(trifluoromethyl)benzyl)-1H-indole-7-carboxamido)ethyl)benzoic acid], the IC50 was not below 1 µM.

`C[C@@H](NC(=O)c1cc(-c2ccccc2)cc2ccn(Cc3ccc(C(F)(F)F)cc3)c12)c1ccc(C(=O)O)cc1` [Example 4, (R)-4-(1-(5-phenyl-1-(4-(trifluoromethyl)benzyl)-1H-indole-7-carboxamido)ethyl)benzoic acid] yielded an IC50 not below 1 µM.

On to `O=C(O)c1ccc(C2(NC(=O)c3cc(-c4ccc(F)cc4)cc4ccn(Cc5ccc(C(F)(F)F)cc5)c34)CC2)cc1` [Example 5, 4-(1-(5-(4-fluorophenyl)-1-(4-(trifluoromethyl)benzyl)-1H-indole-7-carboxamido)cyclopropyl)-benzoic acid], for which the IC50 was 0.1 to 1 µM.

`O=C(O)c1ccc(C2(NC(=O)c3cc(-c4ccccc4)cc4ccn(Cc5ccc(C(F)(F)F)cc5)c34)CC2)cc1` [Example 6, 4-(1-(5-phenyl-1-(4-(trifluoromethyl)benzyl)-1H-indole-7-carboxamido)cyclopropyl)benzoiacid] displayed an IC50 of 0.1 to 1 µM.

Consider `O=C(O)c1ccc(CNC(=O)c2cc(-c3ccc(F)c(F)c3)cc3ccn(Cc4ccc(C(F)(F)F)cc4)c23)cc1` [Example 8, 4-((5-(3,4-difluorophenyl)-1-(4-(trifluoromethyl)benzyl)-1H-indole-7-carboxamido)methyl)benzoic acid], for which the IC50 was less than 0.1 µM.

Regarding `O=C(O)c1ccc(CNC(=O)c2cc(-c3cccc(C(F)(F)F)c3)cc3ccn(Cc4ccc(C(F)(F)F)cc4)c23)cc1` [Example 10, 4-((1-(4-(trifluoromethyl)benzyl)-5-(3-(trifluoromethyl)phenyl)-1H-indole-7-carboxamido)methyl)benzoic acid], the IC50 is 0.1 to 1 µM.

For the compound `O=C(O)c1ccc(CNC(=O)c2cc(-c3cc(F)cc(C(F)(F)F)c3)cc3ccn(Cc4ccc(C(F)(F)F)cc4)c23)cc1` [Example 11, 4-((5-(3-fluoro-5-(trifluoromethyl)phenyl)-1-(4-(trifluoromethyl)benzyl)-1H-indole-7-carboxamido)methyl)benzoic acid], the IC50 is less than 0.1 µM.

Consider `C[C@@H](NC(=O)c1cc(-c2cccc(C#N)c2)cc2ccn(Cc3ccc(C(F)(F)F)cc3)c12)c1ccc(C(=O)O)cc1` [Example 12, (R)-4-(1-(5-(3-cyanophenyl)-1-(4-(trifluoromethyl)benzyl)-1H-indole-7-carboxamido)ethyl) benzoic acid], for which the IC50 was not below 1 µM.

Compound `C[C@@H](NC(=O)c1cc(-c2ccc(F)c(F)c2)cc2ccn(Cc3ccc(C(F)(F)F)cc3)c12)c1ccc(C(=O)O)cc1` [Example 13, (R)-4-(1-(5-(3,4-difluorophenyl)-1-(4-(trifluoromethyl)benzyl)-1H-indole-7-carboxamido)ethyl)benzoic acid] returned an IC50 not below 1 µM.

In turn, `C[C@@H](NC(=O)c1cc(-c2cc(F)cc(F)c2)cc2ccn(Cc3ccc(C(F)(F)F)cc3)c12)c1ccc(C(=O)O)cc1` [Example 14, (R)-4-(1-(5-(3,5-difluorophenyl)-1-(4-(trifluoromethyl)benzyl)-1H-indole-7-carboxamido)ethyl) benzoic acid] showed an IC50 not below 1 µM.

For the compound `C[C@@H](NC(=O)c1cc(-c2cccc(C(F)(F)F)c2)cc2ccn(Cc3ccc(C(F)(F)F)cc3)c12)c1ccc(C(=O)O)cc1` [Example 15, (R)-4-(1-(1-(4-(trifluoromethyl)benzyl)-5-(3-(trifluoromethyl)phenyl)-1H-indole-7-carboxamido)ethyl) benzoic acid], the IC50 is not below 1 µM.

For the compound `C[C@@H](NC(=O)c1cc(-c2cc(F)cc(C(F)(F)F)c2)cc2ccn(Cc3ccc(C(F)(F)F)cc3)c12)c1ccc(C(=O)O)cc1` [Example 16, (R)-4-(1-(5-(3-fluoro-5-(trifluoromethyl)phenyl)-1-(4-(trifluoromethyl)benzyl)-1H-indole-7-carboxamido)ethyl)benzoic acid], the IC50 was not below 1 µM.

Regarding `N#Cc1cccc(-c2cc(C(=O)NC3(c4ccc(C(=O)O)cc4)CC3)c3c(ccn3Cc3ccc(C(F)(F)F)cc3)c2)c1` [Example 17, 4-(1-(5-(3-cyanophenyl)-1-(4-(trifluoromethyl)benzyl)-1H-indole-7-carboxamido)cyclopropyl)benzoic acid], the IC50 was less than 0.1 µM.

As to `O=C(O)c1ccc(C2(NC(=O)c3cc(-c4ccc(F)c(F)c4)cc4ccn(Cc5ccc(C(F)(F)F)cc5)c34)CC2)cc1` [Example 18, 4-(1-(5-(3,4-difluorophenyl)-1-(4-(trifluoromethyl)benzyl)-1H-indole-7-carboxamido)cyclopropyl)benzoic acid], the IC50 was in the range of 0.1 to 1 µM.

For `O=C(O)c1ccc(C2(NC(=O)c3cc(-c4cc(F)cc(F)c4)cc4ccn(Cc5ccc(C(F)(F)F)cc5)c34)CC2)cc1` [Example 19, 4-(1-(5-(3,5-difluorophenyl)-1-(4-(trifluoromethyl)benzyl)-1H-indole-7-carboxamido)cyclopropyl)benzoic acid], the IC50 is not below 1 µM.

`O=C(O)c1ccc(C2(NC(=O)c3cc(-c4cccc(C(F)(F)F)c4)cc4ccn(Cc5ccc(C(F)(F)F)cc5)c34)CC2)cc1` [Example 20, 4-(1-(1-(4-(trifluoromethyl)benzyl)-5-(3-(trifluoromethyl)phenyl)-1H-indole-7-carboxamido)cyclopropyl)benzoic acid] displayed an IC50 not below 1 µM.

In turn, `O=C(O)c1ccc(C2(NC(=O)c3cc(-c4cc(F)cc(C(F)(F)F)c4)cc4ccn(Cc5ccc(C(F)(F)F)cc5)c34)CC2)cc1` [Example 21, 4-(1-(5-(3-fluoro-5-(trifluoromethyl)phenyl)-1-(4-(trifluoromethyl)benzyl)-1H-indole-7-carboxamido)cyclopropyl)benzoic acid] returned an IC50 of 0.1 to 1 µM.
